The subject of data set [1] is E. coli ATCC 25922. Put plainly: Antibacterial assay, MIC/MBC by broth microdilution (CLSI). Conditions: for MIC: repeated twice, a/b = both values. Format: cell-based. As for the experimental part:
(§1) Antibacterial assay. The minimum inhibitory concentrations (MICs) and the minimum bactericidal concentrations (MBCs) were determined by the broth microdilution method as described in the CLSI (The Clinical & Laboratory Standards Institute) guidelines (Performance standards for antimicrobial susceptibility testing: Clinical and Laboratory Standards Institute (CLSI), Twenty-Fifth informational supplement. Document M100-S25: […]; Vol. 35). All bacterial strains were cultured in cation-adjusted Muller Hinton broth (CAMHB) up to log-phase and then diluted to give a concentration of 7.5×10^5 CFU/mL. The gold complexes were dissolved in DMSO or water as stock solutions, which were then serially diluted two-fold in a 96-well plate. Aliquots (100 μL) of the dilutions were mixed with equal volumes of the bacterium suspension in a 96 well plate (in triplicates). The plates were incubated at 37° C. for 18 h without shaking. Negative and positive controls were included in the same well plate with wells having the culture medium only and bacteria solution only, respectively. The sample concentration that gave inhibition values above 90% were determined as MICs as calculated from absorbance values at 600 nm (OD600) obtained using a Tecan SPARK IOM plate reader. To determine minimum bactericidal concentrations (MBCs), agar plates were treated with 5 μL sample solutions from each well, and then incubated at 37° C. for 18 h without shaking. The sample concentration that gave no colony formed on agar plates were determined as MBCs.
(§2) Selection of bacteria. The ESKAPE pathogens were chosen as they are responsible for the majority of nosocomial infections and also as they provide a good scope of strains including both Gram-negative and Gram-positive species. A. baumannii NCTC 13420 was originally identified in 24 hospitals in the UK during 2000-2003, which produced OXA-51-like β-lactamases, and was highly resistant to ampicillin, piperacillin, piperacillin/tazobactam, ceftazidime, cefotaxime, gentamicin and ciprofloxacin. P. aeruginosa NCTC13437 produces VIM-10 metallo-carbapenemase and VEB-1 (Vietnamese extended-spectrum beta-lactamase). Wild-type strain E. cloacae NCTC 13405 (originally named E. cloacae 684) was isolated from patients at the London Hospital during 1982-1983. This strain has inducible AmpC β-lactamase and is resistant to ampicillin/amoxicillin and cefoxitin. K. pneumoniae ATCC 700603 was isolated from the urine of a hospitalized patient in Richmond, Va. in 1994, and it produces SHV-18 extended spectrum beta-lactamase (ESBL). JE2 (USA300) is a methicillin-resistant S. aureus (MRSA) strain, also resistant to beta-lactams, ciprofloxacin, tetracycline, macrolides (erythromycin), lincosamides (clindamycin), streptogramin B, and mupirocin. E. faecium ATCC 700221, a positive fecal VRE (vancomycin-resistant enterococcus) isolate, is resistant to several antibiotics including vancomycin and teicoplanin. The quality control strain, Gram-negative E. coli ATCC 25922, was included in all assays and validated with ciprofloxacin and […].

Data set [2] deals with E. cloacae NCTC 13405. The description is as above. Format: cell-based. The settings on record: E. cloacae NCTC 13405; for MIC: repeated twice, a/b = both values. As for the experimental part: as §1, §2
Data set [3] concerns S. aureus JE2 (USA300). The description is as above. Format: cell-based. Conditions: S. aureus JE2 (USA300); for MIC: repeated twice, a/b = both values. As for the experimental part: as §1, §2
The test system of data set [4] is K. pneumoniae ATCC 700603. Described as above. The data set is classed as cell-based. Conditions: K. pneumoniae ATCC 700603; for MIC: repeated twice, a/b = both values. As for the experimental part:
as §1, §2

The test system of data set [5] is E. faecalis ATCC 700221. The description is as above. Format: cell-based. The settings on record: for MIC: repeated twice, a/b = both values. As for the experimental part:
as §1, §2

Data set [6] deals with A. baumannii NCTC 13420. The description is as above. Format: cell-based. The settings on record: A. baumannii NCTC 13420; for MIC: repeated twice, a/b = both values. As for the experimental part: as §1, §2
The test system of data set [7] is P. aeruginosa NCTC 13437. Described as above. The data set is classed as cell-based. Conditions: P. aeruginosa NCTC 13437; for MIC: repeated twice, a/b = both values. As for the experimental part: as §1, §2
In data set [8] the test system is A549 cells. Put plainly: Cytotoxicity assay (resazurin). Format: cell-based. The settings on record: 20 h, mean±S.E.M. from two independent experiments. As for the experimental part: Sample preparation. The compounds were dissolved in DMSO at 12.8 mg/mL as the stock solutions, except for compounds 9-17, which were directly dissolved in the culture medium at 12.8 mg/mL. The stock solutions were diluted by the culture medium to the testing concentration at 128 μg/mL (compound 9-17 were diluted to 1,280 μg/mL). The solutions were then serially diluted two fold in a 96-well plate and were used in the cytotoxicity assay immediately.
Cell culture and cytotoxicity assay. A549 cells (ATCC CCL-185) were cultured in high glucose DMEM (Sigma-Aldrich, D6429) supplemented with 10% FBS, 1% penicillin-streptomycin solution (Sigma-Aldrich, P4333), 1% gentamicin solution (Sigma-Aldrich, G1272) and 1% amphotericin B solution (Sigma-Aldrich, A2942) at 37° C. in a humidified atmosphere containing 5% CO2. After cells reached 80%˜90% confluency, they were detached and counted using an Invitrogen Countess automated cell counter. Cells with viability over 90% were seeded at a density of 5×10^3 cells per well in 96-well cell culture plates. After overnight culture, the culture medium in each well removed with a pipet. 80 μL of the compound solutions from each well of the 96-well plate prepared above were transferred to this 96-well plate containing the cells, and the plates were incubated for 20 h. After addition of 8 μL of 110 μg/mL resazurin, the plates were incubated for further 3 h at 37° C. in 5% CO2. The fluorescence intensity was measured using a Tecan M200 Infinite Pro microplate reader at excitation 560 nm, emission 590 nm. IC50 were calculated by curve fitting the inhibition values vs. log(concentration) using GraphPad's Prism. The cytotoxicity assays (in triplicate) were repeated twice using freshly prepared cells and compound solutions.

Data set [9] is described as follows: Log P determination (n-octanol/water, FAAS). As for the experimental part:
Log P Determination: Calibration curves. Milli-Q Water (150 mL) was added to n-octanol (150 mL), and the mixture was stirred for 3 days to allow both phases to reach saturation. The gold standard solution (1000 ppm Au in hydrochloric acid, Fisher Scientific) was diluted to 1, 2, 3, 4 and 5 ppm with n-octanol-saturated water, and the absorbance of the resulting solutions was measured by flame atomic absorption spectroscopy (FAAS, Agilent Technology 200 Series AA, equipped with a gold HC Lamp-Au coded). The absorbance data were plotted against Au concentration, and the resulting calibration curve was used for determining the concentration of the analogs in the aqueous phase.
To construct the standard calibration curve of the Au concentration in the n-octanol phase, compound 27 was used. The Au concentration in compound 27 was first calibrated against the aqueous gold standard. For this, 0.440 mg of compound 27 was weighed on a Sartorius MC5 microbalance, and then added to 22 mL of n-octanol-saturated water. […] For this, solutions of varying concentrations (0.99, 2.47, 4.94, 5.93, 9.88 ppm) of compound 27 in water-saturated n-octanol were prepared. The absorbance was measured by FAAS, and the data were plotted against the Au concentration to provide a second calibration curve, which was used for determining the Au concentration of the analogs in the n-octanol phase.
Determination of Au concentrations: Method 1. 0.5 to 1 mg of compound was weighed into a 2-mL Eppendorf tube containing 2 mL of n-octanol-saturated water. After shaking for about 4 h, the solution was centrifuged at 6000 rpm for 3 min. 1 mL of the supernatant was transferred to a new tube containing 1 mL of water-saturated n-octanol, and the mixture was shaken for 1 h. After centrifugation at 6000 rpm for 5 min, the two layers were collected and the gold concentration in each layer was determined by FAAS by comparing the absorbance to the first and second calibration curves.
Determination of Au concentrations: Method 2. […] For Method 2, 0.6 to 1 mg of compound was weighed into a 2-mL Eppendorf tube containing 1 mL of n-octanol-saturated water and 1 mL of water-saturated n-octanol. After shaking for 3-4 h, the mixture was centrifuged, and all liquid was transferred to a 15-mL tube. The liquid was then diluted with 2 mL of n-octanol-saturated saturated water and 2 mL of water-saturated n-octanol, and the mixture was shaken for another hour. After centrifugation at 6000 rpm for 5 min, the two layers were collected and the gold concentration in each layer was determined by FAAS by comparing the absorbance to the first and second calibration curves.
Log P was calculated as follows: log P=log[compound]oct/[compound]water

Read-outs that look alike come from different tables or passages of the source.

What is called Log P is a log measure of how a compound divides between an organic and an aqueous phase. A low value points to lower lipophilicity. As for “(Tri-n-butylphosphine) gold chloride [Compound 30]”, the MIC was over 589 μM/mL in data set [1]; over 589 μM/mL in data set [2]; 2 μM/mL in data set [3]; 147 (147) μM/mL in data set [4]; 5 (5) μM/mL in data set [5]; 74/147 in data set [6]. Further, in data set [7], the MIC is given as 74 (74) μM/mL. The “MBC (in brackets)” value in data set [3] is given as 4 μM/mL; in [4], 147 (147) μM/mL; in data set [5], 5 (5) μM/mL; in data set [6], “(147) μM/mL”; in data set [7] it was 74 (74) μM/mL. The “IC50 against A549 cells” value in data set [8] turned out to be 4.7 ± 0.0 µg/mL. In data set [9] (n-octanol/water, gold by FAAS), the lipophilicity (Log P) was over 3.99.

“(1-Thio-β-D-maltosato)(triethylphosphine) gold(I) [Compound 14]”: the “MBC (in brackets)” value was 12 (12) μM/mL in [1]; 190 (190) μM/mL in data set [2]; 4 (0.09) μM/mL in data set [3]; “(0.4) μM/mL” in data set [5]; 24 (24) μM/mL in data set [6]; 381 (381) μM/mL in [7]. Besides, the MIC was 12 (12) μM/mL in data set [1]; 190 (190) μM/mL in data set [2]; over 381 μM/mL in data set [4]; 24 (24) μM/mL in [6]; 381 (381) μM/mL in data set [7]. Besides, the “IC50 against A549 cells” value in [8] was 31.0 ± 2.4 µg/mL. In data set [9], the “Log P” value is recorded as −1.69.

Take “(1-Thio-β-D-galatopyranosato)(trimethylphosphine) gold(I) [Compound 16]”: the “MBC (in brackets)” value in data set [1] was 9 (9) μM/mL; in data set [2], 4(4) μM/mL; in data set [3] it was 0.3 (0.3) μM/mL; in data set [4] it was 34 (34) μM/mL; in data set [5], “(0.5) μM/mL”; in [6], 17 μM/mL. For the same substance, the MIC in [1] was 9 (9) μM/mL; in [2] it was 4(4) μM/mL; in [3], 0.3 (0.3) μM/mL; in [4], 34 (34) μM/mL; in data set [6] it was 17/9; in data set [7], over 547 μM/mL. Also, the “IC50 against A549 cells” value in data set [8] stood at 43.0 ± 3.7 µg/mL. For the same substance, the “Log P” value in [9] is −1.88.

Consider “(Tris(4-methoxyphenyl)phosphine) gold chloride [Compound 32]”, for which the MIC is reported as over 438 μM/mL in [1]; over 438 μM/mL in data set [2]; 2 μM/mL in data set [3]; over 438 μM/mL in data set [4]; 3 (3) μM/mL in [5]; over 438 μM/mL in [6]. This substance showed an MIC in data set [7] of over 438 μM/mL. Further, the figures for the “MBC (in brackets)” value in [3] and in [5] were 3 μM/mL and 3 (3) μM/mL, respectively. Moreover, the “IC50 against A549 cells” value in data set [8] was 9.4 ± 1.7 µg/mL. In addition, in [9] (n-octanol/water, gold by FAAS), the “Log P” value is reported as over 4.09.

Consider “(Tris(4-trifluoromethylphenyl)phosphine) gold chloride [Compound 34]”, for which the MIC in data set [1] is over 366 μM/mL; in data set [2] it was over 366 μM/mL; in [3], 3/1; in data set [4] it was over 366 μM/mL; in [5], over 366 μM/mL; in [6] it was over 366 μM/mL. The same substance had an MIC in data set [7] of over 366 μM/mL. Moreover, the “MBC (in brackets)” value in data set [3] was 11 μM/mL. Moreover, the “IC50 against A549 cells” value in [8] amounted to 85.6 ± 26.1 µg/mL. For the same substance, the “Log P” value in data set [9] (n-octanol/water, gold by FAAS) is over 3.94.

Consider “(2-Acetamido-2-deoxy-1-thio-β-D-glucopyranosato)(trimethylphosphine) gold(I) [Compound 17]”, for which the “MBC (in brackets)” value in data set [1] is on record as “(31) μM/mL”; in data set [2], 16 μM/mL; in [3], 0.5 (0.5) μM/mL; in [4] it was 126 μM/mL; in data set [5] it was “(0.5) μM/mL”; in data set [6], 16 μM/mL. The MIC was 8/31 in [1]; 8/16 in data set [2]; 0.5 (0.5) μM/mL in data set [3]; 31 μM/mL in [4]; 16/8 in data set [6]; over 503 μM/mL in data set [7]. Moreover, in [8], the “IC50 against A549 cells” value was 35.5 ± 0.9 µg/mL. Moreover, the “Log P” value in data set [9] is −2.03.

The record behind these values is patent US20210198284A1, “GOLD COMPOSITIONS AND METHODS OF USE THEREOF” (THE UNIVERSITY OF MASSACHUSETTS, priority 2018, published 2021).
